Reference: patent US11548870B2, “Compounds useful as inhibitors of helios protein” (Bristol-Myers Squibb Company, priority 2019, dated 2023)
Where two headings read alike, the source gives them in different places.

Experiments:
[1] = target: T1, Helios (Homo sapiens, UniProt Q96SW2+Q9UKS7); assay: Helios Cellular Degradation Assay (flow cytometry, Helios-PE antibody staining, 72 h); type: cell-based; conditions: for Dmax: Jurkat, read-out: Helios Dmax
T1 construct: fluorescently labelled antibodies against Helios and Ikaros; endogenous in cells; host or cells: Jurkat cells
How it was run: (§1)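 Jurkat cells (80,000/well, RPMI+10% FBS) were exposed to compound for 72 h at 37 °C, then fixed, permeabilized and co-stained for 1 h with Ikaros-Alexa488 and Helios-PE antibodies. Intracellular protein levels were read by flow cytometry.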

[2] = target: T2, Ikaros (Homo sapiens, UniProt Q13422); assay: Helios Cellular Degradation Assay, Ikaros readout (flow cytometry, Ikaros-Alexa488 antibody staining, 72 h); type: cell-based; conditions: for Dmax: Jurkat, read-out: Ikaros Dmax
T2 construct: fluorescently labelled antibodies against Helios and Ikaros; endogenous in cells; host or cells: Jurkat cells
How it was run: as §1

[3] = Jurkat cells, 72 h incubation, flow cytometry

T1 sequence (Q9UKS7 whole entry): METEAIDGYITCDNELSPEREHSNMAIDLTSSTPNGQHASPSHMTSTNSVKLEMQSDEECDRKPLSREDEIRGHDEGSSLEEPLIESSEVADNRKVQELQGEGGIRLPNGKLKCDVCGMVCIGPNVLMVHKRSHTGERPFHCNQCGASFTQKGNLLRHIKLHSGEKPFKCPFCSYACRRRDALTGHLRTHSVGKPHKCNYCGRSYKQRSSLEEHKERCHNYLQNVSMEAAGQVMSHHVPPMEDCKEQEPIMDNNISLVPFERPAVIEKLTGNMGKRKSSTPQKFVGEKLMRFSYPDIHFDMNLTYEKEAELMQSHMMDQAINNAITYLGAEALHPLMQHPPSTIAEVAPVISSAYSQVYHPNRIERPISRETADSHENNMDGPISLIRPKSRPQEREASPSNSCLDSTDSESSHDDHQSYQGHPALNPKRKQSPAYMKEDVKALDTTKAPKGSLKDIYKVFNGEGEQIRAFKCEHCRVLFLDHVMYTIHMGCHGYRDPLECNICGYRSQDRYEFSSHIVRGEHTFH
T1 sequence (Q96SW2 whole entry): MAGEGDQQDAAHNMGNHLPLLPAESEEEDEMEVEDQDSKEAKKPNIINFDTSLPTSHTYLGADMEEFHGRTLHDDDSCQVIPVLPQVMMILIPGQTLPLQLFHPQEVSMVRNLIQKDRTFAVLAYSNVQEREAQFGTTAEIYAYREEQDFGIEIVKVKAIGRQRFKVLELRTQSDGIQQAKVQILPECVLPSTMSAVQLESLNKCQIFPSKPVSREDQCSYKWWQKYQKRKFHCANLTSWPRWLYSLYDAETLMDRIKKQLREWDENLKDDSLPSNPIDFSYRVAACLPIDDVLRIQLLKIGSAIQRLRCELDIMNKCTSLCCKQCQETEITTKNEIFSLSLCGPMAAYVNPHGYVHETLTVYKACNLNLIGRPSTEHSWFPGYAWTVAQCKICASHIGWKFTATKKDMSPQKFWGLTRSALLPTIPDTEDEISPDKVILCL
T1 sequence (Q16531 whole entry partner): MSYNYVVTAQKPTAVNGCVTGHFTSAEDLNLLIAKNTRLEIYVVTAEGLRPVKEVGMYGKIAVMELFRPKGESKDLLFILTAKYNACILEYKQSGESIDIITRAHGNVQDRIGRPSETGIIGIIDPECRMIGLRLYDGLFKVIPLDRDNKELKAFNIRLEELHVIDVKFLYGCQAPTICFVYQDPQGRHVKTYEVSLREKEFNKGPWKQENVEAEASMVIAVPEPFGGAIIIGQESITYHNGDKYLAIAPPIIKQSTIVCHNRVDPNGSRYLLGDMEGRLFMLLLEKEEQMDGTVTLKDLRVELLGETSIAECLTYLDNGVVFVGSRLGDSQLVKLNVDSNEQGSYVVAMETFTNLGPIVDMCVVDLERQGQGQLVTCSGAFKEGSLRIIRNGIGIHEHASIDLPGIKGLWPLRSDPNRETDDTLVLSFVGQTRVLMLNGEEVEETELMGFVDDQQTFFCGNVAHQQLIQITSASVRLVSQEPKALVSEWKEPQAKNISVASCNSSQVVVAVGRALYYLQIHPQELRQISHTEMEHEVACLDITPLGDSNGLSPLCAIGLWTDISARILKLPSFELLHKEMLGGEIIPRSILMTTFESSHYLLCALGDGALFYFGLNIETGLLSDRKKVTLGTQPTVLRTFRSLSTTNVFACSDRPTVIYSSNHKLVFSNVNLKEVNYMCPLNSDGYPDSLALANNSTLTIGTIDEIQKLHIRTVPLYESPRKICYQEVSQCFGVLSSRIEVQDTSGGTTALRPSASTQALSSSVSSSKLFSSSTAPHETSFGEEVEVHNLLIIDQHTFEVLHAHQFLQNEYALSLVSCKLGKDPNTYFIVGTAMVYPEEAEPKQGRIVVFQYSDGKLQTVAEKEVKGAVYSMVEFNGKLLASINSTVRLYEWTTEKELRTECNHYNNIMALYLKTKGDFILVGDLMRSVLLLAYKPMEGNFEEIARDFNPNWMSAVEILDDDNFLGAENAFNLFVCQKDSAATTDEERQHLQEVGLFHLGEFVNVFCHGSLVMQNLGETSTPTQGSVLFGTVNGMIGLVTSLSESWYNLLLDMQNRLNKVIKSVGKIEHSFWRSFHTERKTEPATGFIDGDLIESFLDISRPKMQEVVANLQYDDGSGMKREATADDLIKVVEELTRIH
T2 sequence (Q96SW2 whole entry partner): as the sequence (Q96SW2 whole entry) above
T2 sequence (Q16531 whole entry partner): as the sequence (Q16531 whole entry partner) above
T2 sequence (Q13422 whole entry): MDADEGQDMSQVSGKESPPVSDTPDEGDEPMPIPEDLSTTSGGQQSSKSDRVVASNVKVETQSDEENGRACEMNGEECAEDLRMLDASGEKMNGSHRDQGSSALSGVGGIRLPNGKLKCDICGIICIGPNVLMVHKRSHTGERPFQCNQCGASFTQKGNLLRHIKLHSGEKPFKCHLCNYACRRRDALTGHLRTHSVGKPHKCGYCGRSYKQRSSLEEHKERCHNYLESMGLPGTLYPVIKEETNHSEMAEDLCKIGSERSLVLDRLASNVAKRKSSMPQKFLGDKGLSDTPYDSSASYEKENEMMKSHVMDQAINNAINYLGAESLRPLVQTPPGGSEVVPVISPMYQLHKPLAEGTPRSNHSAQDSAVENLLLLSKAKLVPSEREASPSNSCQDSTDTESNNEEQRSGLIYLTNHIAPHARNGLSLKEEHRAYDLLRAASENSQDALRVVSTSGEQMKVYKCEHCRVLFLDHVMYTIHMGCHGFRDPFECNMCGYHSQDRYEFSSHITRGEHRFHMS

Row | Structure (SMILES) | DC50 [1, 3] [nM] | Dmax [1, 3] [%] | DC50 [2, 3] [nM] | Dmax [2, 3] [%] | Helios Dmax [1, 3] [%] | Ikaros Dmax [2, 3] [%] | Dmax [1] [%] | Dmax [2] [%]
1 | O=C1CCC(N2Cc3cc(-c4cc(CN5CCC5c5ccccc5)ccn4)ccc3C2=O)C(=O)N1 (stereo not drawn) [Example 76, 3-(1-oxo-5-(4-((2-phenylazetidin-1-yl)methyl)pyridin-2-yl)isoindolin-2-yl) piperidine-2,6-dione] | 6 | 98 | > 10000 | 12 | – | – | – | –
2 | O=C1CCC(N2Cc3cc(-c4cc(CNC5(C6CC6)CCC5)ccn4)ccc3C2=O)C(=O)N1 (stereo not drawn) [Example 77, 3-(5-(4-(((1-cyclopropylcyclobutyl)amino)methyl)pyridin-2-yl)-1-oxoisoindolin-2-yl)piperidine-2,6-dione] | 12 | 85 | > 10000 | 12 | – | – | – | –
3 | CN1C[C@@H]2CN(Cc3ccnc(-c4ccc5c(c4)CN(C4CCC(=O)NC4=O)C5=O)c3)C[C@@H]2C1 (stereo partly drawn) [Example 78, 3-(5-(4-(((3aR,6aS)-5-methylhexahydropyrrolo[3,4-c]pyrrol-2(1H)-yl)methyl)pyridin-2-yl)-1-oxoisoindolin-2-yl)piperidine-2,6-dione] | > 10000 | 49 | > 10000 | 0 | – | – | – | –
4 | O=C1CCC(N2Cc3cc(-c4cc(CN5CC6CC5CO6)ccn4)ccc3C2=O)C(=O)N1 (stereo not drawn) [Example 79, 3-(5-(4-((2-oxa-5-azabicyclo[2.2.1]heptan-5-yl)methyl)pyridin-2-yl)-1-oxoisoindolin-2-yl) piperidine-2,6-dione] | > 10000 | 26 | > 10000 | 8 | – | – | – | –
5 | CC1CC(NCc2ccnc(-c3ccc4c(c3)CN(C3CCC(=O)NC3=O)C4=O)c2)CCO1 (stereo not drawn) [Example 80, 3-(5-(4-(((2-methyltetrahydro-2H-pyran-4-yl)amino)methyl)pyridin-2-yl)-1-oxoisoindolin-2-yl)piperidine-2,6-dione] | 35 | – | > 10000 | – | 99 | 12 | – | –
6 | C[C@@H]1C[C@H](C)CN(Cc2ccnc(-c3ccc4c(c3)CN(C3CCC(=O)NC3=O)C4=O)c2)C1 (stereo partly drawn) [Example 81, 3-(5-(4-(((3S,5R)-3,5-dimethylpiperidin-1-yl)methyl)pyridin-2-yl)-1-oxoisoindolin-2-yl)piperidine-2,6-dione] | 78 | 64 | > 10000 | 26 | – | – | – | –
7 | CC1(C)CCN(Cc2ccnc(-c3ccc4c(c3)CN(C3CCC(=O)NC3=O)C4=O)c2)CC1 (stereo not drawn) [Example 82, 3-(5-(4-((4,4-dimethylpiperidin-1-yl)methyl)pyridin-2-yl)-1-oxoisoindolin-2-yl)piperidine-2,6-dione] | 9 | 89 | > 10000 | 17 | – | – | – | –
8 | O=C1CCC(N2Cc3cc(-c4cc(CN5CC(c6ccccc6)C5)ccn4)ccc3C2=O)C(=O)N1 (stereo not drawn) [Example 83, 3-(1-oxo-5-(4-((3-phenylazetidin-1-yl)methyl)pyridin-2-yl)isoindolin-2-yl)piperidine-2,6-dione] | 7 | 91 | > 10000 | 20 | – | – | – | –
9 | O=C1CCC(N2Cc3cc(-c4cc(CN[C@@H]5CCC[C@@H]5c5ccccc5)ccn4)ccc3C2=O)C(=O)N1 (stereo partly drawn) [Example 84, 3-(1-oxo-5-(4-((((1R,2R)-2-phenylcyclopentyl)amino)methyl)pyridin-2-yl)isoindolin-2-yl)piperidine-2,6-dione] | 40 | 69 | > 10000 | 4 | – | – | – | –
10 | CC1(C)CCCN(Cc2ccnc(-c3ccc4c(c3)CN(C3CCC(=O)NC3=O)C4=O)c2)C1 (stereo not drawn) [Example 85, 3-(5-(4-((3,3-dimethylpiperidin-1-yl)methyl)pyridin-2-yl)-1-oxoisoindolin-2-yl)piperidine-2,6-dione] | > 10000 | 20 | > 10000 | 7 | – | – | – | –
11 | O=C1CCC(N2Cc3cc(-c4cc(CNC5CCCC5)ccn4)ccc3C2=O)C(=O)N1 (stereo not drawn) [Example 86, 3-(5-(4-((cyclopentylamino)methyl)pyridin-2-yl)-1-oxoisoindolin-2-yl)piperidine-2,6-dione] | 19 | 91 | > 10000 | 20 | – | – | – | –
12 | O=C1CCC(N2Cc3cc(-c4cc(CNC5CCCCC5)ccn4)ccc3C2=O)C(=O)N1 (stereo not drawn) [Example 87, 3-(5-(4-((cyclohexylamino)methyl)pyridin-2-yl)-1-oxoisoindolin-2-yl) piperidine-2,6-dione] | 29 | 100 | > 10000 | 12 | – | – | – | –
13 | O=C1CCC(N2Cc3cc(-c4cc(CNCCN5CCOCC5)ccn4)ccc3C2=O)C(=O)N1 (stereo not drawn) [Example 88, 3-(5-(4-(((2-morpholinoethyl)amino)methyl)pyridin-2-yl)-1-oxoisoindolin-2-yl)piperidine-2,6-dione] | 72 | 102 | > 10000 | 27 | – | – | – | –
14 | CC(C)(C)NCc1ccnc(-c2ccc3c(c2)CN(C2CCC(=O)NC2=O)C3=O)c1 (stereo not drawn) [Example 89, 3-(5-(4-((tert-butylamino)methyl)pyridin-2-yl)-1-oxoisoindolin-2-yl)piperidine-2,6-dione] | 103 | – | > 10000 | – | – | – | 71 | 8
15 | O=C1CCC(N2Cc3cc(-c4cc(CNCC(c5ccccc5)c5ccccc5)ccn4)ccc3C2=O)C(=O)N1 (stereo not drawn) [Example 90, 3-(5-(4-(((2,2-diphenylethyl)amino)methyl)pyridin-2-yl)-1-oxoisoindolin-2-yl)piperidine-2,6-dione] | 213 | 61 | > 10000 | 17 | – | – | – | –
16 | CC(=O)NCCNCc1ccnc(-c2ccc3c(c2)CN(C2CCC(=O)NC2=O)C3=O)c1 (stereo not drawn) [Example 91, N-(2-(((2-(2-(2,6-dioxopiperidin-3-yl)-1-oxoisoindolin-5-yl)pyridin-4-yl)methyl)amino)ethyl)acetamide] | 3530 | 60 | > 10000 | 4 | – | – | – | –
17 | O=C1CCC(N2Cc3cc(-c4cc(CNCCO)ccn4)ccc3C2=O)C(=O)N1 (stereo not drawn) [Example 92, 3-(5-(4-(((2-hydroxyethyl)amino)methyl)pyridin-2-yl)-1-oxoisoindolin-2-yl) piperidine-2,6-dione] | 209 | 92 | > 10000 | 11 | – | – | – | –
18 | O=C1CCC(N2Cc3cc(-c4cc(CNCCc5ccccc5Cl)ccn4)ccc3C2=O)C(=O)N1 (stereo not drawn) [Example 93, 3-(5-(4-(((2-chlorophenethyl)amino)methyl)pyridin-2-yl)-1-oxoisoindolin-2-yl)piperidine-2,6-dione] | 9 | 103 | > 10000 | 23 | – | – | – | –
19 | O=C1CCC(N2Cc3cc(-c4cc(CNCCc5ccc(Cl)cc5)ccn4)ccc3C2=O)C(=O)N1 (stereo not drawn) [Example 94, 3-(5-(4-(((4-chlorophenethyl)amino)methyl)pyridin-2-yl)-1-oxoisoindolin-2-yl)piperidine-2,6-dione] | 35 | 74 | > 10000 | 11 | – | – | – | –
20 | COc1ccc(CCNCc2ccnc(-c3ccc4c(c3)CN(C3CCC(=O)NC3=O)C4=O)c2)cc1 (stereo not drawn) [Example 95, 3-(5-(4-(((4-methoxyphenethyl)amino)methyl)pyridin-2-yl)-1-oxoisoindolin-2-yl)piperidine-2,6-dione] | 34 | 94 | > 10000 | 17 | – | – | – | –
21 | O=C1CCC(N2Cc3cc(-c4cc(CNCCc5ccc(O)cc5)ccn4)ccc3C2=O)C(=O)N1 (stereo not drawn) [Example 96, 3-(5-(4-(((4-hydroxyphenethyl)amino)methyl)pyridin-2-yl)-1-oxoisoindolin-2-yl) piperidine-2,6-dione] | 19 | 94 | > 10000 | 25 | – | – | – | –
22 | CC(C)CCNCc1ccnc(-c2ccc3c(c2)CN(C2CCC(=O)NC2=O)C3=O)c1 (stereo not drawn) [Example 97, 3-(5-(4-((isopentylamino)methyl)pyridin-2-yl)-1-oxoisoindolin-2-yl)piperidine-2,6-dione] | 8 | 90 | > 10000 | 11 | – | – | – | –
23 | O=C1CCC(N2Cc3cc(-c4cc(CNCCCc5ccccc5)ccn4)ccc3C2=O)C(=O)N1 (stereo not drawn) [Example 98, 3-(1-oxo-5-(4-(((3-phenylpropyl)amino)methyl)pyridin-2-yl)isoindolin-2-yl)piperidine-2,6-dione] | 6 | 91 | > 10000 | 8 | – | – | – | –
24 | N#CCNCc1ccnc(-c2ccc3c(c2)CN(C2CCC(=O)NC2=O)C3=O)c1 (stereo not drawn) [Example 99, 2-(((2-(2-(2,6-dioxopiperidin-3-yl)-1-oxoisoindolin-5-yl)pyridin-4-yl)methyl)amino)acetonitrile] | 419 | 65 | > 10000 | 6 | – | – | – | –
25 | NC(=O)CNCc1ccnc(-c2ccc3c(c2)CN(C2CCC(=O)NC2=O)C3=O)c1 (stereo not drawn) [Example 100, 2-(((2-(2-(2,6-dioxopiperidin-3-yl)-1-oxoisoindolin-5-yl)pyridin-4-yl)methyl)amino) acetamide] | 6130 | – | > 10000 | – | 55 | 6 | – | –
26 | O=C1CCC(N2Cc3cc(-c4cc(CNC5CCC(O)CC5)ccn4)ccc3C2=O)C(=O)N1 (stereo not drawn) [Example 101, 3-(5-(4-(((4-hydroxycyclohexyl)amino)methyl)pyridin-2-yl)-1-oxoisoindolin-2-yl)piperidine-2,6-dione] | 59 | 89 | > 10000 | 22 | – | – | – | –
27 | O=C1CCC(N2Cc3cc(-c4cc(CNCCc5cccc(Cl)c5)ccn4)ccc3C2=O)C(=O)N1 (stereo not drawn) [Example 102, 3-(5-(4-(((3-chlorophenethyl)amino)methyl)pyridin-2-yl)-1-oxoisoindolin-2-yl)piperidine-2,6-dione] | 11 | 97 | > 10000 | 10 | – | – | – | –
